Source: patent publication US11690850B2, “Inhibitors of receptor interacting protein kinase I for the treatment of disease” (Board of Regents, The University of Texas System, priority 2019, dated 2023)

Molecular target: RIPK1 (Homo sapiens (Human), UniProt Q13546)
Experiment: ADP-Glo Kinase Assay
Assay type: biochemical
Conditions: 5 nM RIPK1 protein, 50 μM ATP, 6 hr reaction, average value across multiple runs
Description: In order to measure RIPK1 activity the ADP-Glo kinase assay (Promega, Catalog #V7002) was used to measure the conversion of ATP to ADP. This enzymatic assay was performed in a 384-well white, Optiplate (Perkin Elmer, Catalog #6007299) with assay buffer consisting of 50 mM HEPES pH 7.5 (Gibco, Catalog #15630-080), 50 mM NaCl (Teknova, Catalog #S0252), 30 mM MgCl2 (Ambion, Catalog #AM9530G), 1 mM DTT (Santa Cruz Biotechnology, Catalog #sc-29089), 0.05% BSA (Sigma, Catalog #A3059-50G) and 0.02% CHAPS (Sigma, Catalog #C5070-5G). Stock solutions of the test compounds were prepared in 100% DMSO (Sigma, Catalog #D2650) and serially diluted 1:3 using 100% DMSO. Compounds were additionally diluted 1:40 in assay buffer, and 2 μL/well were transferred to the assay plate. 4 μL/well (final concentration of 5 nM) of RIPK1 protein (SignalChem, Catalog #R07-11G-05) diluted in assay buffer and added to the assay plate followed by a 10 minute preincutation at room temperature. 4 μL/well of ATP (Promega, Catalog #V7002) (final concentration of 50 μM) diluted in assay buffer were then added to the assay plate followed by a 6 hr reaction time. Final concentrations of RIPK1 and ATP refer to a 10 μL volume. Luminescence was measured using a BioTek Synergy™ NEO plate reader. IC50 values were calculated using a four-parameter logistic curve fit using Genedata Screener software. Results are shown below in Table 4, where the average value across multiple runs is given.

Sequence of RIPK1 (Q13546 1-327): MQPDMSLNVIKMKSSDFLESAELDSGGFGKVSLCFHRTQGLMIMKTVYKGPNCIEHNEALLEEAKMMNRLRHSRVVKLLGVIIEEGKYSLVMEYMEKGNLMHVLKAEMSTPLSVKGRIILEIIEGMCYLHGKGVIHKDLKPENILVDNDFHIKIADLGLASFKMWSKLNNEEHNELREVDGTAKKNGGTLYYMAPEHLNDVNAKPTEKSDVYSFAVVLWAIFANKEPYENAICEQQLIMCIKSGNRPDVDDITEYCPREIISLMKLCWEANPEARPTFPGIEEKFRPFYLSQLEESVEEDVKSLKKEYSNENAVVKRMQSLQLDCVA

| IC50 | SMILES |
| --- | --- |
| 1.46 µM | Cc1cc(=O)c(C(=O)Nc2c(F)cccc2C(C)C)nn1-c1ccccc1 [Example 27, N-(2-fluoro-6-isopropylphenyl)-6-methyl-4-oxo-1-phenyl-1,4-dihydropyridazine-3-carboxamide] |
| 2.68 µM | Cc1cccc(C(C)(C)C)c1NC(=O)c1nn(-c2ccccc2)c(C)cc1=O [Example 28, N-(2-(tert-butyl)-6-methylphenyl)-6-methyl-4-oxo-1-phenyl-1,4-dihydropyridazine-3-carboxamide] |
| 1.15 µM | Cc1cccc(C(F)(F)F)c1NC(=O)c1nn(-c2ccccc2)c(C)cc1=O [Example 29, 6-methyl-N-(2-methyl-6-(trifluoromethyl)phenyl)-4-oxo-1-phenyl-1,4-dihydropyridazine-3-carboxamide] |
| 15.5 µM | Cc1cc(=O)c(C(=O)Nc2ccccc2C2CC2)nn1-c1ccccc1 [Example 30, N-(2-cyclopropylphenyl)-6-methyl-4-oxo-1-phenyl-1,4-dihydropyridazine-3-carboxamide] |
| 0.519 µM | Cc1cnc2ccccc2c1NC(=O)c1nn(-c2ccccc2)c(C)cc1=O [Example 31, 6-methyl-N-(3-methylquinolin-4-yl)-4-oxo-1-phenyl-1,4-dihydropyridazine-3-carboxamide] |
| 3.91 µM | Cc1cc(=O)c(C(=O)Nc2c(C(C)C)ncnc2C(C)C)nn1-c1ccccc1 [Example 34, N-(4,6-diisopropylpyrimidin-5-yl)-6-methyl-4-oxo-1-phenyl-1,4-dihydropyridazine-3-carboxamide] |
| 1.78 µM | COCc1cc(=O)c(C(=O)Nc2cccc(Cl)c2F)nn1-c1ccccc1 [Example 35, N-(3-chloro-2-fluorophenyl)-6-(methoxymethyl)-4-oxo-1-phenyl-1,4-dihydropyridazine-3-carboxamide] |
| 1.44 µM | CN1C(=O)C(NC(=O)c2nn(-c3ccccc3)c(CCl)c(Cl)c2=O)CCc2cc(Cl)ccc21 (stereo not drawn) [Example 46, 5-chloro-N-(7-chloro-1-methyl-2-oxo-2,3,4,5-tetrahydro-1H-benzo[b]azepin-3-yl)-6-(chloromethyl)-4-oxo-1-phenyl-1,4-dihydropyridazine-3-carboxamide] |
| 0.037 µM | Cc1ccc(-n2nc(C(=O)NC3CCc4ccccc4NC3=O)c(=O)cc2C)cc1F (stereo not drawn) [Example 52, 1-(3-fluoro-4-methylphenyl)-6-methyl-4-oxo-N-(2-oxo-2,3,4,5-tetrahydro-1H-benzo[b]azepin-3-yl)-1,4-dihydro-pyridazine-3-carboxamide] |
| 33.3 µM | Cc1cc(=O)c(C(=O)Nc2nc(C(F)(F)F)c(Br)s2)nn1-c1ccccc1 [Example 84, N-(5-bromo-4-(trifluoromethyl)thiazol-2-yl)-6-methyl-4-oxo-1-phenyl-1,4-dihydropyridazine-3-carboxamide] |
| 38.8 µM | Cc1cc(=O)c(C(=O)NC(C)(C)C)nn1-c1ccccc1 [Example 85, N-(tert-butyl)-6-methyl-4-oxo-1-phenyl-1,4-dihydropyridazine-3-carboxamide] |
| 17.6 µM | Cc1nocc1NC(=O)c1nn(-c2ccccc2)c(C)cc1=O [Example 86, 6-methyl-N-(3-methylisoxazol-4-yl)-4-oxo-1-phenyl-1,4-dihydropyridazine-3-carboxamide] |
| 20.8 µM | Cc1cc(C)c2nc(NC(=O)c3nn(-c4ccccc4)c(C)cc3=O)sc2c1 [Example 87, N-(4,6-dimethylbenzo[d]thiazol-2-yl)-6-methyl-4-oxo-1-phenyl-1,4-dihydropyridazine-3-carboxamide] |
| 33.3 µM | COCc1cc(=O)c(C(=O)Nc2cccc(Cl)c2F)nn1C [Example 88, N-(3-chloro-2-fluorophenyl)-6-(methoxymethyl)-1-methyl-4-oxo-1,4-dihydropyridazine-3-carboxamide] |
| 18.6 µM | Cc1cc(=O)c(C(=O)Nc2c(C(C)C)nn(C)c2C(C)C)nn1-c1ccccc1 [Example 89, N-(3,5-diisopropyl-1-methyl-1H-pyrazol-4-yl)-6-methyl-4-oxo-1-phenyl-1,4-dihydropyridazine-3-carboxamide] |
| 41.9 µM | Cc1cc(=O)c(C(=O)Nc2c(C(C)C)n[nH]c2C(C)C)nn1-c1ccccc1 [Example 90, N-(3,5-diisopropyl-1H-pyrazol-4-yl)-6-methyl-4-oxo-1-phenyl-1,4-dihydropyridazine-3-carboxamide] |
| 5.31 µM | Cc1cc(=O)c(C(=O)NC2CC2)nn1-c1ccccc1 [Example 91, N-cyclopropyl-6-methyl-4-oxo-1-phenyl-1,4-dihydropyridazine-3-carboxamide] |

Further lines, the compound ahead of its results:

| SMILES | IC50 |
| --- | --- |
| Cc1cc(=O)c(C(=O)Nc2cccc(Cl)c2F)nn1Cc1ccccc1 [Example 2, 1-Benzyl-N-(3-chloro-2-fluorophenyl)-6-methyl-4-oxo-1,4-dihydropyridazine-3-carboxamide] | 0.823 µM |
| Cc1cc(=O)c(C(=O)NCc2cc(F)cc(F)c2)nn1-c1ccccc1 [Example 3, N-(3,5-difluorobenzyl)-6-methyl-4-oxo-1-phenyl-1,4-dihydropyridazine-3-carboxamide] | 10.2 µM |
| Cc1cc(=O)c(C(=O)Nc2cccc(Cl)c2)nn1-c1ccccc1 [Example 4, N-(3-chlorophenyl)-6-methyl-4-oxo-1-phenyl-1,4-dihydropyridazine-3-carboxamide] | 0.08 µM |
| Cc1cc(=O)c(C(=O)Nc2cc(Cl)cc(C#N)c2)nn1-c1ccccc1 [Example 5, N-(3-chloro-5-cyanophenyl)-6-methyl-4-oxo-1-phenyl-1,4-dihydropyridazine-3-carboxamide] | 1.78 µM |
| Cc1cc(=O)c(C(=O)Nc2ccccc2)nn1-c1cccc(Cl)c1F [Example 7, 1-(3-chloro-2-fluorophenyl)-6-methyl-4-oxo-N-phenyl-1,4-dihydropyridazine-3-carboxamide] | 1.6 µM |
| Cc1cc(=O)c(C(=O)Nc2cncc(Cl)c2)nn1-c1ccccc1 [Example 10, N-(5-chloropyridin-3-yl)-6-methyl-4-oxo-1-phenyl-1,4-dihydropyridazine-3-carboxamide] | 0.39 µM |
| Cc1cc(=O)c(C(=O)Nc2ccn3nccc3c2)nn1-c1ccccc1 [Example 11, 6-methyl-4-oxo-1-phenyl-N-(pyrazolo[1,5-a]pyridin-5-yl)-1,4-dihydropyridazine-3-carboxamide] | 15.4 µM |
| Cc1cc(=O)c(C(=O)Nc2cc(Cl)c3ncsc3c2)nn1-c1ccccc1 [Example 12, N-(4-chlorobenzo[d]thiazol-6-yl)-6-methyl-4-oxo-1-phenyl-1,4-dihydropyridazine-3-carboxamide] | 1.18 µM |
| Cc1cc(=O)c(C(=O)Nc2ccc3nn[nH]c3c2)nn1-c1ccccc1 [Example 13, N-(1H-benzo[d][1,2,3]triazol-6-yl)-6-methyl-4-oxo-1-phenyl-1,4-dihydropyridazine-3-carboxamide] | 7.92 µM |
| Cc1nn(C)c(C)c1NC(=O)c1nn(-c2ccccc2)c(C)cc1=O [Example 14, 6-methyl-4-oxo-1-phenyl-N-(1,3,5-trimethyl-1H-pyrazol-4-yl)-1,4-dihydropyridazine-3-carboxamide] | 4.61 µM |
| Cc1cc(NC(=O)c2nn(-c3ccccc3)c(C)cc2=O)ncn1 [Example 15, 6-methyl-N-(6-methylpyrimidin-4-yl)-4-oxo-1-phenyl-1,4-dihydropyridazine-3-carboxamide] | 13.6 µM |
| Cc1noc(C)c1NC(=O)c1nn(-c2ccccc2)c(C)cc1=O [Example 16, N-(3,5-dimethylisoxazol-4-yl)-6-methyl-4-oxo-1-phenyl-1,4-dihydropyridazine-3-carboxamide] | 4.4 µM |
| Cc1cc(=O)c(C(=O)Nc2cc(Cl)c3cn[nH]c3c2)nn1-c1ccccc1 [Example 18, N-(4-chloro-1H-indazol-6-yl)-6-methyl-4-oxo-1-phenyl-1,4-dihydropyridazine-3-carboxamide] | 4.71 µM |
| Cc1n[nH]c(C)c1NC(=O)c1nn(-c2ccccc2)c(C)cc1=O [Example 19, N-(3,5-dimethyl-1H-pyrazol-4-yl)-6-methyl-4-oxo-1-phenyl-1,4-dihydropyridazine-3-carboxamide] | 12.6 µM |
| Cc1nccc(NC(=O)c2nn(-c3ccccc3)c(C)cc2=O)n1 [Example 20, 6-methyl-N-(2-methylpyrimidin-4-yl)-4-oxo-1-phenyl-1,4-dihydropyridazine-3-carboxamide] | 4.46 µM |
| Cc1cc(=O)c(C(=O)Nc2ccc(C#N)s2)nn1-c1ccccc1 [Example 21, N-(5-cyanothiophen-2-yl)-6-methyl-4-oxo-1-phenyl-1,4-dihydropyridazine-3-carboxamide] | 0.636 µM |
| Cc1cccc(C)c1NC(=O)c1nn(-c2ccccc2)c(C)cc1=O [Example 22, N-(2,6-dimethylphenyl)-6-methyl-4-oxo-1-phenyl-1,4-dihydropyridazine-3-carboxamide] | 1.5 µM |
| Cc1cc(=O)c(C(=O)Nc2c3c(nc4ccccc24)CCCC3)nn1-c1ccccc1 [Example 23, 6-methyl-4-oxo-1-phenyl-N-(1,2,3,4-tetrahydroacridin-9-yl)-1,4-dihydropyridazine-3-carboxamide] | 1.14 µM |
| Cc1ncnc(C)c1NC(=O)c1nn(-c2ccccc2)c(C)cc1=O [Example 25, N-(4,6-dimethylpyrimidin-5-yl)-6-methyl-4-oxo-1-phenyl-1,4-dihydropyridazine-3-carboxamide] | 3.87 µM |
